Data on 68 sequences can be found in the supplement of paper PMC11208160.
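Also: IS621 bridge recombinase in Escherichia coli cells against a fixed T5 target plasmid.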

A short description of the data set: recombinant UMI read abundance after kanamycin selection (control-corrected) (log10(CPM+1)); higher = more efficient recombination; extreme values may be limits of the assay; sequences stand for … in AGTGCAGAGAAAATCGGCCAGTTTTCTCTGCCTGCAGTCCGCATGCCGTGGGACCCCTTGGGTTCTAACCTGTTGCCTAGATTTATGCAGCGGACTGCCTTTCTCCCAAAGTGATAAACCGG…AGGTTGGTTTCACT; site = the 11-nt donor. The method, boiled down:
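After plating on IPTG (0.07 mM) plus kanamycin, or unselected, in two replicates, recombinant UMIs were PCR-amplified across the donor–target junction and sequenced. The cells were Escherichia coli co-electroporated with a UMI-tagged donor and donor-binding-loop pair library and a target plasmid with a fixed target and T7-inducible IS621 bridge recombinase. Values are log10(CPM+1), with CPM averaged over replicates and scaled by control-derived factors.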
Regarding “CACGCCTCATGGACCGGTTTTCCCGGTAATCCGTATTTGCC (site CACGCCTCTGG)”, the “recombinant UMI read abundance (log10)” value was found to be 3.32.

With “CACGCCTCATGGACCGGTTTTCCCGGTAATCCGTATTTGCC (site CACTCCTCTGG)”, the “recombinant UMI read abundance (log10)” value turned out to be 2.11. In the case of “CACGCGACATGGACCGGTTTTCCCGGTAATCCGTATTTGTA (site CACGCGACTTA)” it was 2.4. The value for “CACGGCCCATGGACCGGTTTTCCCGGTAATCCGTATTTGAT (site CACGGCCCTAA)” was 0.0181. In the case of “CACGGCCCATGGACCGGTTTTCCCGGTAATCCGTATTTGAT (site CACGGCCCTAC)” it was 0.0396; in that of “CACGGCCCATGGACCGGTTTTCCCGGTAATCCGTATTTGAT (site CACGGCCCTAG)”, 0. For “CACGGCCCATGGACCGGTTTTCCCGGTAATCCGTATTTGAT (site CACGGCCCTAT)”, the “recombinant UMI read abundance (log10)” value is 0.255. The value for “CACGGCCCATGGACCGGTTTTCCCGGTAATCCGTATTTGGT (site CACGGCCCTAA)” was 0.0236; that for “CACGGCCCATGGACCGGTTTTCCCGGTAATCCGTATTTGGT (site CACGGCCCTAC)” was 0.00703; that for “CACGGCCCATGGACCGGTTTTCCCGGTAATCCGTATTTGGT (site CACGGCCCTAG)” was 0.

Take “CACGGCCCATGGACCGGTTTTCCCGGTAATCCGTATTTGGT (site CACGGCCCTAT)”: the “recombinant UMI read abundance (log10)” value came out at 0.456. The value for “CACGGCCCATGGACCGGTTTTCCCGGTAATCCGTATTTGTA (site CACGGCCCTAA)” was 0.00609; that for “CACGGCCCATGGACCGGTTTTCCCGGTAATCCGTATTTGTA (site CACGGCCCTCA)” was 0.0202. In the case of “CACGGCCCATGGACCGGTTTTCCCGGTAATCCGTATTTGTA (site CACGGCCCTGA)” it was 1.81.

For the sequence “CACGGCCCATGGACCGGTTTTCCCGGTAATCCGTATTTGTA (site CACGGCCCTTA)”, the “recombinant UMI read abundance (log10)” value was determined as 0.29. The value for “CACGGGCCATGGACCGGTTTTCCCGGTAATCCGTATTTGTT (site CACGGACCTAA)” was 0; that for “CACGGGCCATGGACCGGTTTTCCCGGTAATCCGTATTTGTT (site CACGGCCCTAA)” was 0.234. The value for “CACGGGCCATGGACCGGTTTTCCCGGTAATCCGTATTTGTT (site CACGGGCCTAA)” was 0.574. The value for “CACGGGCCATGGACCGGTTTTCCCGGTAATCCGTATTTGTT (site CACGGTCCTAA)” was 0.00819; that for “CACGGGTCATGGACCGGTTTTCCCGGTAATCCGTATTTGCT (site CACGGGTCTAG)” was 2.17. For the sequence “CACGGTCCATGGACCGGTTTTCCCGGTAATCCGTATTTGAT (site CACGGTCCTAT)”, the “recombinant UMI read abundance (log10)” value is 0.938.

With “CACGGTTCATGGACCGGTTTTCCCGGTAATCCGTATTTGGG (site CACGGTTCTCC)”, the “recombinant UMI read abundance (log10)” value was determined as 1.03.

With “CACGTACCATGGACCGGTTTTCCCGGTAATCCGTATTTGCA (site CACGTACCTTG)”, the “recombinant UMI read abundance (log10)” value was determined as 0.

In the case of “CACTACTCATGGACCGGTTTTCCCGGTAATCCGTATTTGTT (site CACTACTCTAA)”, the “recombinant UMI read abundance (log10)” value is 2.71. The value for “CACTAGGCATGGACCGGTTTTCCCGGTAATCCGTATTTGTA (site CACTAGGCTTA)” was 1.42; that for “CACTATGCATGGACCGGTTTTCCCGGTAATCCGTATTTGAT (site CACTATGCTAT)” was 1.93.

For “CACTCAGCATGGACCGGTTTTCCCGGTAATCCGTATTTGCC (site CACTCAGCTGG)”, the “recombinant UMI read abundance (log10)” value came to 2.5. In the case of “CACTCCACATGGACCGGTTTTCCCGGTAATCCGTATTTGCG (site CACTCCACTCG)” it was 1.09; in that of “CACTCGGCATGGACCGGTTTTCCCGGTAATCCGTATTTGGA (site CACTAGGCTTC)”, 0.232; in that of “CACTCGGCATGGACCGGTTTTCCCGGTAATCCGTATTTGGA (site CACTCGGCTTC)”, 1.09. The value for “CACTCGGCATGGACCGGTTTTCCCGGTAATCCGTATTTGGA (site CACTGGGCTTC)” was 0.201; that for “CACTCGGCATGGACCGGTTTTCCCGGTAATCCGTATTTGGA (site CACTTGGCTTC)” was 0.0193. The value for “CACTCTTCATGGACCGGTTTTCCCGGTAATCCGTATTTGCC (site CACTCATCTGG)” was 1.6. As to “CACTCTTCATGGACCGGTTTTCCCGGTAATCCGTATTTGCC (site CACTCCTCTGG)”, the “recombinant UMI read abundance (log10)” value worked out at 2.13. The value for “CACTCTTCATGGACCGGTTTTCCCGGTAATCCGTATTTGCC (site CACTCGTCTGG)” was 0; that for “CACTCTTCATGGACCGGTTTTCCCGGTAATCCGTATTTGCC (site CACTCTTCTGG)” was 2.07; that for “CACTGTACATGGACCGGTTTTCCCGGTAATCCGTATTTGCG (site CACTGTACTCG)” was 1.83.

For “CACTTAGCATGGACCGGTTTTCCCGGTAATCCGTATTTGGA (site CACTTAGCTTC)”, the “recombinant UMI read abundance (log10)” value was determined as 1.16. In the case of “CACTTAGCATGGACCGGTTTTCCCGGTAATCCGTATTTGGA (site CACTTCGCTTC)” it was 0.00475; in that of “CACTTAGCATGGACCGGTTTTCCCGGTAATCCGTATTTGGA (site CACTTGGCTTC)”, 0.0129; in that of “CACTTAGCATGGACCGGTTTTCCCGGTAATCCGTATTTGGA (site CACTTTGCTTC)”, 0. The value for “CACTTGCCATGGACCGGTTTTCCCGGTAATCCGTATTTGGA (site CACTTGACTTC)” was 0.0268. In the case of “CACTTGCCATGGACCGGTTTTCCCGGTAATCCGTATTTGGA (site CACTTGCCTTC)” it was 0.021; in that of “CACTTGCCATGGACCGGTTTTCCCGGTAATCCGTATTTGGA (site CACTTGGCTTC)”, 0.0247; in that of “CACTTGCCATGGACCGGTTTTCCCGGTAATCCGTATTTGGA (site CACTTGTCTTC)”, 0.137. Regarding “CACTTGGCATGGACCGGTTTTCCCGGTAATCCGTATTTGGA (site AACTTGGCTTC)”, the “recombinant UMI read abundance (log10)” value turned out to be 0.00381. The value for “CACTTGGCATGGACCGGTTTTCCCGGTAATCCGTATTTGGA (site CAATTGGCTTC)” was 0.432; that for “CACTTGGCATGGACCGGTTTTCCCGGTAATCCGTATTTGGA (site CACATGGCTTC)” was 0.0226. Consider “CACTTGGCATGGACCGGTTTTCCCGGTAATCCGTATTTGGA (site CACCTGGCTTC)”, for which the “recombinant UMI read abundance (log10)” value stood at 0.612. The value for “CACTTGGCATGGACCGGTTTTCCCGGTAATCCGTATTTGGA (site CACGTGGCTTC)” was 0.024; that for “CACTTGGCATGGACCGGTTTTCCCGGTAATCCGTATTTGGA (site CACTAGGCTTC)” was 0.104; that for “CACTTGGCATGGACCGGTTTTCCCGGTAATCCGTATTTGGA (site CACTCGGCTTC)” was 0.0123. The value for “CACTTGGCATGGACCGGTTTTCCCGGTAATCCGTATTTGGA (site CACTGGGCTTC)” was 0.0362; that for “CACTTGGCATGGACCGGTTTTCCCGGTAATCCGTATTTGGA (site CACTTAGCTTC)” was 1.14; that for “CACTTGGCATGGACCGGTTTTCCCGGTAATCCGTATTTGGA (site CACTTCGCTTC)” was 0.0367. As for “CACTTGGCATGGACCGGTTTTCCCGGTAATCCGTATTTGGA (site CACTTGACTTC)”, the “recombinant UMI read abundance (log10)” value is 0.231.

In the case of “CACTTGGCATGGACCGGTTTTCCCGGTAATCCGTATTTGGA (site CACTTGCCTTC)”, the “recombinant UMI read abundance (log10)” value was 0.407. Consider “CACTTGGCATGGACCGGTTTTCCCGGTAATCCGTATTTGGA (site CACTTGGCTAC)”, for which the “recombinant UMI read abundance (log10)” value is 0.013. The value for “CACTTGGCATGGACCGGTTTTCCCGGTAATCCGTATTTGGA (site CACTTGGCTCC)” was 0.381; that for “CACTTGGCATGGACCGGTTTTCCCGGTAATCCGTATTTGGA (site CACTTGGCTGC)” was 0.96; that for “CACTTGGCATGGACCGGTTTTCCCGGTAATCCGTATTTGGA (site CACTTGGCTTA)” was 1.12. The value for “CACTTGGCATGGACCGGTTTTCCCGGTAATCCGTATTTGGA (site CACTTGGCTTC)” was 0.91; that for “CACTTGGCATGGACCGGTTTTCCCGGTAATCCGTATTTGGA (site CACTTGGCTTG)” was 0.926.

Take “CACTTGGCATGGACCGGTTTTCCCGGTAATCCGTATTTGGA (site CACTTGGCTTT)”: the “recombinant UMI read abundance (log10)” value turned out to be 1.77. The value for “CACTTGGCATGGACCGGTTTTCCCGGTAATCCGTATTTGGA (site CACTTGTCTTC)” was 0.78; that for “CACTTGGCATGGACCGGTTTTCCCGGTAATCCGTATTTGGA (site CACTTTGCTTC)” was 0.00347. The value for “CACTTGGCATGGACCGGTTTTCCCGGTAATCCGTATTTGGA (site CAGTTGGCTTC)” was 0.28; that for “CACTTGGCATGGACCGGTTTTCCCGGTAATCCGTATTTGGA (site CATTTGGCTTC)” was 0.342.
